These results are taken from patent publication US20250375511A1 (priority 2024, published 2025).

One data set deals with T24 cells. The format is cell-based, human.
A short description of data set [1]: Binding of Fe^3+ to BCG: zeta potential (Zeta Sizer Ultra). It is filed as physicochemical. To be noted: in water, 0.04 mg/mL BCG, 100 uM Fe(NO3)3, measured immediately. The protocol: Zeta potential was measured immediately using a Zeta Sizer Ultra (Malvern).
Data set [2] deals with CT26.WT (mouse colon adenocarcinoma) tumors. Also on record: species or system male BALB/C mice. To be noted: in vivo.

As to `O=[N+]([O-])[O-].O=[N+]([O-])[O-].O=[N+]([O-])[O-].[Fe+3]` [Fe^3+, Fe(NO3)3], in the data set on T24 cells, the cell kill is recorded as 1.4%. Further, the zeta potential entry in data set [1] is “not detectable”.
Regarding “Ru(4,4′-dimethyl-2,2′-bipyridine)2(2-(2′,2″:5″,2′″-terthiophene)-imidazo[4,5-f][1,10]phenanthroline) [RUVIDAR]”, in data set [2], the survival entry was “significantly increases survival, but the effect size is small” and the tumor growth result is “tumor growth suppression”.
